Experiments:
[1] = system: murine leukemia L1210 cells; assay: Growth inhibition test on cultured murine leukemia L1210 cells; assay type: cell-based; conditions: 48 hours, 37° C., Trypan blue viability
Protocol: 1. Growth inhibition test on cultured murine leukemia L1210 cells
Murine leukemia L1210 cells(1×10^5) were treated with various concentrations of the compounds prepared in the above examples in RPMI 1640 medium supplemented with 10% fetal calf serum, and cultured in a 5% CO2 humidified incubator at 37° C. for 48 hours. Their viability, estimated by staining with 0.17% Trypan blue, was compared with that of control cells cultured in the identical medium without the compounds.

murine leukemia L1210 = assay: Antitumor activity test on murine leukemia L1210 in vivo; set-up: species or system male BDF1 mice; conditions: days 1, 5, 9
Protocol: 2. Antitumor activity test on murine leukemia L1210 in vivo
Murine leukemia L1210 cells were maintained in the peritoneal cavities of 6-week-old male DBA/2 mice by weekly transfer in accordance with the procedure described in cancer chemotherapy Reports, Part 3, 3(2), 7 (1972). Specifically, 1×10^6 leukemia cells were inoculated into the abdominal cavities of 6-week-old male BDF1 mice weighing 21±3 g on day 0. Each treatment group consisted of seven mice. The test compounds were dissolved or suspended in 0.5% carboxymethyl cellulose(CMC)solution (in water) and were administered intraperitoneally on days 1, 5, and 9 relative to the tumor inoculation.
Thirty mice of 6-week-old male BDF1 weighing 21±3 g were used as the control group, which were injected with 0.5% CMC solution only in the same manner as above.
Anti-tumor activities of the compounds were evaluated in terms of the T/C % values calculated from the mean survival time(T) of the compound-treated group over that(C) of the control group. [formula]

[2] = Test for water solubility; assay type: physicochemical; conditions: water
Source text: 3. Test for water solubility
A standard plot of UV absorbance(220 nm) vs. concentration was made; and employed to determine water-solubility.
The mixture was then passed through a 0.45 micron disposable membrane filter before dilution and UV measurement.

ICR mice = assay: Acute toxicity test; assay type: in vivo; set-up: Lethality: unit not given here; conditions: for Lethality: 10080 min
Protocol: 7-week-old ICR mice(male: 34±2 g; female: 31±2 g) were fed with solid food and water under the condition of 23±1° C. temperature and 65±5% humidity before the test.
Each treatment group consisted of 6 mice. The test compounds were administered intraperitoneally.
For 7 days after the administration, the appearance and the fate of the tested animals were recorded. The dead animals were subjected to autopsy and their visible pathological changes were observed. Their viscerals were stored in 10% formalin solution.

## CCC1OC2C[NH2+][Pt-2]3([NH2+]CC2O1)[O]C(=O)C1(CCC1)C(=O)[O]3 [Example 24, cis-cyclobutane-1,1-dicarboxylato[(4R,5R)-4,5-bis(aminomethyl)-2-ethyl-1,3-dioxolane]platinum(II)]
[1]
  IC50 (concentration required for 50% inhibition of growth): 0.55 µg/mL
Murine leukemia L1210; 6.2 mg/kg i.p.
  T/C (%): 122%
Murine leukemia L1210; 12.5 mg/kg i.p.
  T/C (%): 130%
Murine leukemia L1210; 25 mg/kg i.p.
  T/C (%): 193%
Murine leukemia L1210; 50 mg/kg i.p.
  T/C (%): 208%
Murine leukemia L1210; 100 mg/kg i.p.
  T/C (%): 391%
[2]
  Solubility in water: 12000 µg/mL
ICR mice; female, 160 mg/kg i.p.
  Number of dead mice for 7 days: 0/6
  Number of dead mice, 1st day: 0/6
ICR mice; female, 208 mg/kg i.p.
  Number of dead mice for 7 days: 0/6
  Number of dead mice, 1st day: 0/6
ICR mice; female, 270 mg/kg i.p.
  Number of dead mice for 7 days: 3/6
  Number of dead mice, 1st day: 0/6
  Number of dead mice, 2nd day: 1/6
  Number of dead mice, 3rd day: 1/5
  Number of dead mice, 5th day: 1/4
  Lethality: 50.0
ICR mice; female, 352 mg/kg i.p.
  Number of dead mice for 7 days: 5/6
  Number of dead mice, 1st day: 0/6
  Number of dead mice, 3rd day: 3/6
  Number of dead mice, 4th day: 2/3
  Lethality: 83.3
ICR mice; female, 457 mg/kg i.p.
  Number of dead mice for 7 days: 6/6
  Number of dead mice, 1st day: 0/6
  Number of dead mice, 2nd day: 4/6
  Number of dead mice, 3rd day: 2/2
  Lethality: 100.0
ICR mice; male, 160 mg/kg i.p.
  Number of dead mice for 7 days: 0/6
  Number of dead mice, 1st day: 0/6
ICR mice; male, 208 mg/kg i.p.
  Number of dead mice for 7 days: 1/6
  Number of dead mice, 1st day: 0/6
  Number of dead mice, 3rd day: 1/6
  Lethality: 16.7
ICR mice; male, 270 mg/kg i.p.
  Number of dead mice for 7 days: 5/6
  Number of dead mice, 1st day: 0/6
  Number of dead mice, 2nd day: 1/6
  Number of dead mice, 3rd day: 2/5
  Number of dead mice, 4th day: 1/3
  Number of dead mice, 5th day: 1/2
  Lethality: 83.3
ICR mice; male, 352 mg/kg i.p.
  Number of dead mice for 7 days: 6/6
  Number of dead mice, 1st day: 1/6
  Number of dead mice, 2nd day: 2/5
  Number of dead mice, 3rd day: 2/3
  Number of dead mice, 6th day: 1/1
  Lethality: 100.0
ICR mice; male, 457 mg/kg i.p.
  Number of dead mice for 7 days: 6/6
  Number of dead mice, 1st day: 0/6
  Number of dead mice, 2nd day: 2/6
  Number of dead mice, 3rd day: 4/6
  Lethality: 100.0

## CCC1C(=O)[O][Pt]2([NH]C[C@H]3OC4(CCCC4)O[C@@H]3C[NH]2)[O]C1=O (stereo partly drawn) [Example 45, cis-ethylmalonato[(4R,5R)-4,5-bis(aminomethyl)-1,3-dioxolane-2-spiro-1'-cyclopentane]platinum (II)]
[1]
  IC50 (concentration required for 50% inhibition of growth): 1.40 µg/mL
Murine leukemia L1210; 25 mg/kg i.p.
  T/C (%): 147%
Murine leukemia L1210; 50 mg/kg i.p.
  T/C (%): 232%
Murine leukemia L1210; 100 mg/kg i.p.
  T/C (%): 216%
[2]
  Solubility in water: 2700 µg/mL

## CC(C)(C)C1OC2C[NH2+][Pt-2]3([NH2+]CC2O1)[O]CC(=O)[O]3 [Example 12, (glycolato-O,O')[(4R,5R)-4,5-bis(aminomethyl)-2-tert-butyl-1,3-dioxolane]platinum(II)]
[1]
  IC50 (concentration required for 50% inhibition of growth): 0.10 µg/mL
Murine leukemia L1210; 3.1 mg/kg i.p.
  T/C (%): 104%
Murine leukemia L1210; 6.2 mg/kg i.p.
  T/C (%): 136%
Murine leukemia L1210; 12.5 mg/kg i.p.
  T/C (%): 154%
Murine leukemia L1210; 25 mg/kg i.p.
  T/C (%): 167%
Murine leukemia L1210; 50 mg/kg i.p.
  T/C (%): toxic
[2]
  Solubility in water: 2100 µg/mL

From patent US5395947A, “Platinum(II) complex and processes for preparing the same” (Sunkyong Industries, Ltd., priority 1991, dated 1995)
